In series [1] the test system is BV2 cells. Put plainly: IC50 of OPPs-induced cytotoxicity in BV2 cells. The following applies: for IC50: read-out: IC50 values of OPPs in BV2 cells. The format is cell-based.
Series [2] concerns NLRP3, ASC, Caspase-1, IL-1β, IL-18 mRNA in BV2 cells. Put plainly: RT-qPCR of NLRP3 inflammasome and inflammatory cytokine mRNA. The format is cell-based. The following applies: for expression of NLRP3, ASC, Caspase-1, IL-1β, IL-18 mRNA vs 0 μM OPPs / ASC mRNA expression, MCC950 intervention vs OPP alone / IL-1β mRNA expression, MCC950 intervention vs OPP alone / NLRP3 mRNA expression, MCC950 pre-treatment vs OPP alone: BV2 cells; for expression of NLRP3, ASC, Caspase-1, IL-1β, IL-18 mRNA vs 0 μM OPPs: 500 μM OPP, P < 0.0001; for ASC mRNA expression, MCC950 intervention vs OPP alone / IL-1β mRNA expression, MCC950 intervention vs OPP alone / NLRP3 mRNA expression, MCC950 pre-treatment vs OPP alone: OPP 500 μM.

Series [3] has as its system IL-1β and IL-18 in extracellular medium of BV2 cells. Briefly: ELISA of IL-1β and IL-18 in culture supernatants. It is filed as cell-based. To be noted: P < 0.0001; for expression of IL-1β and IL-18 in the extracellular medium vs 0 μM OPPs: ELISA, BV2 cells, OPP 125, 250, 500 μM, 24 hr.
Series [4] concerns the target hNLRP3 LRR recombinant protein (Homo sapiens, UniProt Q96P20). Briefly: Surface plasmon resonance. It is filed as binding. To be noted: for kon: read-out: association constant k a. (Surface plasmon resonance follows binding to a sensor surface in real time, without labels.)
Series [5] has as its system BV2 cells. Briefly: LDH-based cytotoxicity assay. It is filed as cell-based. To be noted: 125-1,000 μM, 24 hr, significant concentrations differ per compound.
The test system of series [6] is BV2 cells. Put plainly: CCK-8 cell viability assay. It is filed as cell-based. To be noted: CCK-8, 125-1,000 μM, 24 hr; significant concentrations differ per compound. For orientation: Formazan colour is commonly taken as a measure of viable cells.
Where [7] appears, read: SPR, Biacore 8K, CM5 chip, 25°C.

Where two headings read alike, the source gives them in different places.

Seven compounds from publication PMC11024795 (GeoHealth, 2024) can be followed below.

Usually IC50 stands for the midpoint of a concentration-inhibition curve.

Chain of hNLRP3 LRR recombinant protein (Q96P20 742-991 limits assumed): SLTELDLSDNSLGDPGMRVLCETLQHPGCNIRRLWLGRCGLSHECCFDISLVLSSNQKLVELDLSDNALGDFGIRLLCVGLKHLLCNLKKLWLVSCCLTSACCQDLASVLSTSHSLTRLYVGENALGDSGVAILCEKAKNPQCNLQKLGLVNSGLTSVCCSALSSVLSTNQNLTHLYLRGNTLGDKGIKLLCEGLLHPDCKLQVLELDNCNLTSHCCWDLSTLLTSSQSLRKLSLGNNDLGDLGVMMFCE

Regarding `CC(C)(O)c1coc(S(=O)(=O)NC(=O)Nc2c3c(cc4c2CCC4)CCC3)c1` [MCC950, reference compound], the “cytotoxicity induced by OPPs in BV2 cells” value in the series on BV2 cells [1] (MCC950 10 μM intervention, from IC50 shift) is “markedly decrease”. The “activation of the NLRP3 inflammasome and associated inflammatory cytokine mRNA expression in OPPs-treated BV2 cells” value in series [2] (MCC950 10 μM, OPPs 500 μM) is “reduced”. Further, in series [3] (MCC950 10 μM vs OPPs treatment (125, 250, 500 μM)), the “IL-1β and IL-18 expression in the extracellular medium of OPPs-treated BV2 cells” value is “significantly reduced”.

Consider `COP(=O)(OC)OC(Br)C(Cl)(Cl)Br` (stereo not shown) [dibrom], for which the IC50 in the series on BV2 cells [1] (BV2 cells, OPPs 24 hr) was 585 µM. For the same compound, in series [2], the “Caspase-1 and IL-18 mRNA expressions, MCC950 intervention vs OPP alone” value is given as “significantly decreased”; the “expression of NLRP3, ASC, Caspase-1, IL-1β, IL-18 mRNA vs 0 μM OPPs” value (from here on “expression of NLRP3, ASC … vs 0 μM OPPs”) is “significantly increased”. In addition, in series [2] (MCC950 10 μM), the “ASC mRNA expression, MCC950 intervention vs OPP alone” value (“ASC mRNA expression … vs OPP alone” for short) is listed as “decreased”; the “IL-1β mRNA expression, MCC950 intervention vs OPP alone” value (“IL-1β mRNA expression … vs OPP alone” for short) is given as “decreased”; the “NLRP3 mRNA expression, MCC950 pre-treatment vs OPP alone” value (shortened to “NLRP3 mRNA expression … vs OPP alone”) is given as “significant decrease”. Further, the “expression of IL-1β and IL-18 in the extracellular medium vs 0 μM OPPs” value in series [3] was “significantly increased”. Besides, in series [4] (setting [7]), the “association constant k a” value came out at 76.5 M⁻¹ s⁻¹ and the “dissociation constant k d” value was 0.206 s⁻¹. For the same compound, in series [4] (read-out: affinity constant K D, SPR, Biacore 8K, CM5 chip, 25°C), the Kd was determined as 2690 µM.

For `COP(=O)(OC)OC=C(Cl)Cl` [dichlorvos], the “cytotoxicity (LDH) in BV2 cells vs 0 μM OPPs” value (shortened to “cytotoxicity … vs 0 μM OPPs”) in the series with BV2 cells [5] is recorded as “significantly increased”. Besides, the IC50 with BV2 cells [1] (Mus musculus, BV-2, 24 h) stood at 274 µM. In addition, in the series with BV2 cells [6], the “cell viability of BV2 cells vs 0 μM OPPs” value is given as “significantly decreased”. In series [2], the “Caspase-1 and IL-18 mRNA expressions, MCC950 intervention vs OPP alone” value is on record as “significantly decreased”; the “expression of NLRP3, ASC … vs 0 μM OPPs” value is recorded as “significantly increased”. Further, in series [2] (MCC950 10 μM), the “ASC mRNA expression … vs OPP alone” value was “decreased”; the “IL-1β mRNA expression … vs OPP alone” value was “decreased”; the “NLRP3 mRNA expression … vs OPP alone” value was “significant decrease”. Moreover, the “expression of IL-1β and IL-18 in the extracellular medium vs 0 μM OPPs” value in series [3] is “significantly increased”. Further, in series [4], the Kd turned out to be 1460 µM and the kon was 3.35 M⁻¹ s⁻¹. The “dissociation constant k d” value in series [4] (setting [7]) was found to be 0.00489 s⁻¹.

For the compound `CNC(=O)CSP(=S)(OC)OC` [dimethoate], the “cytotoxicity … vs 0 μM OPPs” value in the series with BV2 cells [5] is “significantly increased”. Moreover, in the series on BV2 cells [6], the “cell viability of BV2 cells vs 0 μM OPPs” value is “significantly decreased”. Besides, in series [2], the “Caspase-1 and IL-18 mRNA expressions, MCC950 intervention vs OPP alone” value is “significantly decreased”; the “expression of NLRP3, ASC … vs 0 μM OPPs” value is recorded as “significantly increased”. For the same compound, in series [2] (MCC950 10 μM), the “ASC mRNA expression … vs OPP alone” value is on record as “decreased”; the “IL-1β mRNA expression … vs OPP alone” value is “decreased”; the “NLRP3 mRNA expression … vs OPP alone” value is on record as “significant decrease”. For the same compound, the “expression of IL-1β and IL-18 in the extracellular medium vs 0 μM OPPs” value in series [3] is “significantly increased”. In addition, in series [4], the Kd was 89.8 µM and the kon is 58.9 M⁻¹ s⁻¹. The “dissociation constant k d” value in series [4] (setting [7]) was determined as 0.00529 s⁻¹.

`COP(=O)(OC)C(O)C(Cl)(Cl)Cl` (stereo not shown) [dipterex]: the “cytotoxicity … vs 0 μM OPPs” value in the series on BV2 cells [5] is on record as “significantly increased”. Also, the IC50 in the series with BV2 cells [1] (BV2 cells, OPPs 24 hr) was 410 µM. Besides, the “cell viability of BV2 cells vs 0 μM OPPs” value with BV2 cells [6] is “significantly decreased”. Besides, in series [2], the “Caspase-1 and IL-18 mRNA expressions, MCC950 intervention vs OPP alone” value is “significantly decreased”; the “expression of NLRP3, ASC … vs 0 μM OPPs” value is on record as “significantly increased”. For the same compound, in series [2] (MCC950 10 μM), the “ASC mRNA expression … vs OPP alone” value is on record as “decreased”; the “IL-1β mRNA expression … vs OPP alone” value is given as “decreased”; the “NLRP3 mRNA expression … vs OPP alone” value was “significant decrease”. Further, the “expression of IL-1β and IL-18 in the extracellular medium vs 0 μM OPPs” value in series [3] is recorded as “significantly increased”. Moreover, in series [4] (setting [7]), the “affinity constant K D” value was “No obvious binding”.

In the case of `COP(=S)(OC)Oc1ccc(SC)c(C)c1` [fenthion], the “cytotoxicity … vs 0 μM OPPs” value in the series on BV2 cells [5] is “significantly increased”. Also, the IC50 in the series on BV2 cells [1] (Mus musculus, BV-2, 24 h) amounted to 2160 µM. Further, the “cell viability of BV2 cells vs 0 μM OPPs” value with BV2 cells [6] was “significantly decreased”. In series [2], the “Caspase-1 and IL-18 mRNA expressions, MCC950 intervention vs OPP alone” value is reported as “significantly decreased”; the “expression of NLRP3, ASC … vs 0 μM OPPs” value is “significantly increased”. Also, in series [2] (MCC950 10 μM), the “ASC mRNA expression … vs OPP alone” value is “decreased”; the “IL-1β mRNA expression … vs OPP alone” value was “decreased”; the “NLRP3 mRNA expression … vs OPP alone” value is on record as “significant decrease”. Moreover, the “expression of IL-1β and IL-18 in the extracellular medium vs 0 μM OPPs” value in series [3] was “significantly increased”. Besides, in series [4] (setting [7]), the “affinity constant K D” value was “No obvious binding”.

Take `CCOP(=O)(OCC)Oc1ccc([N+](=O)[O-])cc1` [paraoxon]: the “cytotoxicity … vs 0 μM OPPs” value with BV2 cells [5] is “significantly increased”. Besides, the IC50 in the series with BV2 cells [1] (BV2 cells, OPPs 24 hr) was 551 µM. Further, in the series on BV2 cells [6], the “cell viability of BV2 cells vs 0 μM OPPs” value is “significantly decreased”. In series [2], the “Caspase-1 and IL-18 mRNA expressions, MCC950 intervention vs OPP alone” value is listed as “significantly decreased”; the “expression of NLRP3, ASC … vs 0 μM OPPs” value is given as “significantly increased”. In addition, in series [2] (MCC950 10 μM), the “ASC mRNA expression … vs OPP alone” value is recorded as “decreased”; the “IL-1β mRNA expression … vs OPP alone” value is “decreased”; the “NLRP3 mRNA expression … vs OPP alone” value is recorded as “significant decrease”. Besides, the “expression of IL-1β and IL-18 in the extracellular medium vs 0 μM OPPs” value in series [3] was “significantly increased”. Besides, in series [4] (setting [7]), the “association constant k a” value turned out to be 14.2 M⁻¹ s⁻¹ and the “dissociation constant k d” value was determined as 0.00461 s⁻¹.
